This note sets out measurements from ChEMBL document CHEMBL1201862, “PubChem BioAssay data set” (2004).

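Compound exposure: 48 hours, 5 concentrations, 96-well plates. At the GI50, growth is halved.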 The source made the active and inactive calls. No stated cut-off is given here; in the data, active = GI50 up to about 1.1 µM and inactive = higher. Some results are limits rather than exact numbers.

Test in all cases: growth of human tumour cells (NCI), 48 h
The test system of test [1] is DMS-273.
The test system of test [2] is DMS-114.
In test [3] the test system is SNB-78.
Test [4] has as its system LXFL 529.
Test [5] deals with M19-MEL.
The subject of test [6] is HOP-18.
The subject of test [7] is RXF 631.
In test [8] the test system is XF498.

Consider `O=C(c1ccccc1)N1C2CCC1C(C(F)(F)F)=C2C(F)(F)F`, for which the GI50 in test [1], in test [2], in test [3], in test [4], in test [5] and in test [6] was > 100 µM (inactive) each time. The GI50 in test [7] was > 100 µM (inactive).
For the molecule `COc1c(OC(C)=O)cc2c(OC(C)=O)c1CC(C)CC(OC)C(O)C(C)/C=C(\C)C(OC(N)=O)C(OC)/C=C\C=C(/C)C(=O)N2` (stereo unspecified), the GI50 in test [1] was > 70.1 µM (inactive); in test [2], > 64.7 µM (inactive); in test [3], > 100 µM (inactive); in test [4] it was 49 µM (inactive); in test [8], > 90.4 µM (inactive); in test [5] it was > 76.4 µM (inactive). For the same molecule, the GI50 in test [6] and in test [7] was > 100 µM (inactive) each time.
Regarding `CCOC(=O)C1C(=O)c2ccccc2CN1Cc1ccccc1` (stereo unspecified), the GI50 in test [1], in test [2], in test [3], in test [4], in test [8] and in test [5] was > 100 µM (inactive) throughout. Also, the GI50 in test [6] and in test [7] was > 100 µM (inactive) throughout.
Regarding `Cc1ccc(Nc2nc(C)c(C(/C=C/c3ccc(/C=C/C(=N/NC(=O)C[n+]4ccccc4)c4sc(Nc5ccc(C)cc5[N+](=O)[O-])nc4C)cc3)=N\NC(=O)C[n+]3ccccc3)s2)c([N+](=O)[O-])c1`, the GI50 is > 100 µM (inactive) in test [1]; 92.9 µM (inactive) in test [2]; 91.2 µM (inactive) in test [3]; 95.7 µM (inactive) in test [4]; > 100 µM (inactive) in test [5]; 7.96 µM (inactive) in test [6]. Besides, the GI50 in test [7] was > 100 µM (inactive).
As for `CCOCc1cc(=O)c2cc3c(cc2o1)OC(C)(C)CC3`, the GI50 was 48.5 µM (inactive) in test [1]; 62.7 µM (inactive) in test [2]; > 100 µM (inactive) in test [3]; 92.7 µM (inactive) in test [4]; > 100 µM (inactive) in test [8]; > 100 µM (inactive) in test [5]. For the same molecule, the GI50 in test [6] and in test [7] was > 100 µM (inactive) in each case.
`NCCNCc1c2ccccc2c(CNCCN)c2ccccc12`: the GI50 in test [2] was 11.6 µM (inactive); in test [3] it was 12.7 µM (inactive); in test [4] it was 5.86 µM (inactive); in test [5], 14.8 µM (inactive); in test [6], 25.7 µM (inactive); in test [7] it was 45.7 µM (inactive).
With `O=C(O)/C(Cl)=C(\Cl)C(=O)Nc1ccccc1`, the GI50 in test [1], in test [3], in test [4], in test [5], in test [6] and in test [7] was > 100 µM (inactive) throughout.
`CS(=O)(=O)OCCn1cnc2nc(NC(=O)c3ccccc3)[nH]c(=O)c21`: the GI50 in test [1], in test [2], in test [3], in test [4], in test [5] and in test [6] was > 100 µM (inactive) in each case. The GI50 in test [7] is > 100 µM (inactive).
Regarding `O=C1c2cnccc2Cc2cccc3c2N1c1ccccc1S3`, the GI50 is 22.9 µM (inactive) in test [1]; 26.4 µM (inactive) in test [2]; 27.5 µM (inactive) in test [4]; 15.1 µM (inactive) in test [8]; 28.9 µM (inactive) in test [5]; 26.1 µM (inactive) in test [7].
For the molecule `COc1cc(C2=NN(C)C(c3ccc([N+](=O)[O-])o3)C2)cc(OC)c1OC` (stereo unspecified), the GI50 was > 100 µM (inactive) in test [1]; 35.6 µM (inactive) in test [2]; > 100 µM (inactive) in test [3]; 38.5 µM (inactive) in test [4]; 29.8 µM (inactive) in test [5]; > 100 µM (inactive) in test [6]. The GI50 in test [7] was 51.5 µM (inactive).
As to `CC(C)(C)c1nc2c(o1)/C(=N\c1ccccc1)c1ccccc1C2=O`, the GI50 in test [1] was 3.71 µM (inactive); in test [3], 4.27 µM (inactive); in test [4], 5.48 µM (inactive); in test [8], 3.68 µM (inactive); in test [5], 0.718 µM (active); in test [6], 9.53 µM (inactive). Besides, the GI50 in test [7] is 22.5 µM (inactive).
Turning to `NC(=O)C(=O)CC(=O)c1ccccc1NC1=CC(=O)C(=O)c2ccccc21`, the GI50 in test [1] is 53.1 µM (inactive); in test [2], 16.7 µM (inactive); in test [3], 58.6 µM (inactive); in test [4], 50.6 µM (inactive); in test [8], > 100 µM (inactive); in test [5] it was 7.74 µM (inactive). Further, the GI50 in test [6] and in test [7] was > 100 µM (inactive) each time.
As to `Oc1cc(-c2cccs2)nc2cc3c(cc12)OCO3`, the GI50 in test [1] was 3.34 µM (inactive); in test [2], 3.93 µM (inactive); in test [3], 7.36 µM (inactive); in test [4], 4.79 µM (inactive); in test [8], 3.54 µM (inactive); in test [5] it was 3.34 µM (inactive). For the same molecule, the GI50 was > 100 µM (inactive) in test [6] and 28.2 µM (inactive) in test [7].
`O=[N+]([O-])c1ccc(Cl)c(C2CC(c3cccc4ccccc34)=Nc3ccccc3[S+]2[O-])c1` (stereo unspecified): the GI50 in test [1] is 19.2 µM (inactive); in test [2], 14.9 µM (inactive); in test [3], 11.4 µM (inactive); in test [4], 13.3 µM (inactive); in test [5], 20.6 µM (inactive); in test [6], 24.2 µM (inactive). In test [7], the GI50 was 29.4 µM (inactive).
As for `Cc1cc(N(CCC#N)CCC#N)ccc1/N=N/c1ccccc1[N+](=O)[O-]`, the GI50 was > 100 µM (inactive) in test [1]; > 100 µM (inactive) in test [2]; > 100 µM (inactive) in test [3]; > 100 µM (inactive) in test [4]; 26.8 µM (inactive) in test [8]; > 100 µM (inactive) in test [5]. Moreover, the GI50 in test [6] and in test [7] was > 100 µM (inactive) each time.
As to `CC1=C(C(=O)Nc2ccc(C)cc2)C(c2cccc([N+](=O)[O-])c2)C(C(=O)Nc2ccc(C)cc2)=C(C)N1`, the GI50 in test [1] was 28.6 µM (inactive); in test [2], 22.5 µM (inactive); in test [3], 27.4 µM (inactive); in test [4], 27.7 µM (inactive); in test [8], 17.8 µM (inactive); in test [5], 20.8 µM (inactive). For the same molecule, the GI50 was 14.1 µM (inactive) in test [6] and 17.2 µM (inactive) in test [7].
